According to patent US6455555B1, “Anti-HIV infection agents and method for treating HIV infection” (Kabushiki Kaisha Hayashibara Seibutsu Kagaku Kenkyujo, priority 2001, dated 2002):
“Also recorded” adds a separate entry of the source. Read-outs that look alike come from different tables or passages of the source.

Experiments:
[1] = cited from earlier work
[2] = tested on: patient suffering from ARC (HIV infection); assay: Clinical Experiment 1: formulation 1 tablets with active ingredient A given to one ARC patient; assay type: in vivo, human
Procedure: (§1) The clinical experiments using the agent for anti-HIV infection of the present invention are explained in the following. The clinical experiments described below were conducted in Thailand without informing the patients of the compound names, chemical structures, etc. of the photosensitizing dyes used as the active ingredient.
The agent for anti-HIV infection of the present invention was administered to a patient suffering from ARC. They had been diagnosed with HIV infection five years before and received administration of AZT/ddI/RTV for 14 months.
His bronchial asthma, a symptom of ARC, was also cured.

HIV (HTLV-IIIB) = assay: microbe, parasite or virus in culture; assay type: cell-based; conditions: for suppression of HIV replication (in words): at the tested concentrations (20-500 μM)
Procedure: To examine the effect on HIV infected cell, MT-4 cells (number of cells at the start of culture 1×10^4/well), that underwent anti-HIV assay, were infected with an HIV (HTLV-IIIB, 200 CCID50/well), cultured at 37° C. for 4 days, and determined for the inhibitory effect on HIV replication, according to the method by Pauels, R. et al., in J. Virol. Methods, 16, 171-185 (1987). Suramin was used as a control.

[3] = tested on: patients suffering from ARC or AIDS (HIV infection); assay: Clinical Experiment 2: formulation 1 tablets with active ingredient A given to seven patients with ARC or AIDS; assay type: in vivo, human
Procedure: as §1
Seven patients suffering from ARC or AIDS were given the agent for anti-HIV infection of the present invention of formulation 1 containing the active ingredient A. Their medical history before treatment was as follows:
Along therewith, their appetite increased, rash, one of the symptoms of ARC, decreased, hemorrhoid was cured, and insomnia was ameliorated.

[4] = after a further 16 weeks, daily dose 1000 μg, following 8 weeks at 500 μg
[5] = 20 μM, MT-4 cells, HTLV-IIIB 200 CCID50/well, 4 days at 37° C.
[6] = 100 μM, MT-4 cells, HTLV-IIIB 200 CCID50/well, 4 days at 37° C.
[7] = 500 μM, MT-4 cells, HTLV-IIIB 200 CCID50/well, 4 days at 37° C.
[8] = 8 weeks, 500 μg/day, one patient per line

Structure (SMILES): CCN1C=CC(=CC=C(C=Cc2cc[n+](CC)c3ccccc23)c2cc[n+](CC)c3ccccc23)c2ccccc21.[I-].[I-] [Active ingredient A]
- side effects such as toxic state ([1]; oral administration at 4 g/kg): does not cause any side effects
- other improvement (in words) ([2]; after 8 weeks, daily dose 500 μg): increased appetite and increased pectoral muscle
- body weight ([2]; after 8 weeks, daily dose 500 μg, 55.6 kg before administration): 56.9 kg
- CD4 count ([2]; after 8 weeks, daily dose 500 μg, 121/mm^3 before administration, person): 181 /mm^3
- bronchial asthma, a symptom of ARC ([2]; after a further 16 weeks, daily dose 1000 μg): cured
- CD4 count [2, 4]: 192 /mm^3
- body weight [2, 4]: 57.1 kg
- Inhibition (%) of HIV replication (HIV (HTLV-IIIB); [5]): 1%
- Inhibition (%) of HIV replication (HIV (HTLV-IIIB); [6]): 2%
- Inhibition (%) of HIV replication (HIV (HTLV-IIIB); [7]): 1%
- suppression of HIV replication (in words) (HIV (HTLV-IIIB); listed as active ingredients A): no anti-virus activity to suppress reproduction of HIV; also recorded: did not suppress the replication of HIV
- Improvement (Symptoms of ARC etc.) [3, 8]: Increased appetite; also recorded: Amelioration of insomnia; also recorded: Cure of hemorrhoids; also recorded: Decrease of rash
- Side effects [3, 8]: None
- overall clinical effect (in words) ([3]; HIV-infected patients): most of the patients showed an increase in the CD4 count and in the body weight

Structure (SMILES): Cc1ccc(C(=O)Nc2ccc(S(=O)(=O)O)c3cc(S(=O)(=O)O)cc(S(=O)(=O)O)c23)cc1NC(=O)c1cccc(NC(=O)Nc2cccc(C(=O)Nc3cc(C(=O)Nc4ccc(S(=O)(=O)O)c5cc(S(=O)(=O)O)cc(S(=O)(=O)O)c45)ccc3C)c2)c1 [Suramin, reference compound]
- inhibition at 0.8 µM (HIV (HTLV-IIIB); Human immunodeficiency virus 1, MT4, 96 h, 0.8 μM, MT-4 cells, HTLV-IIIB 200 CCID50/well, 4 days at 37° C., read-out: Inhibition (%) of HIV replication): 2%
- inhibition at 4 µM (HIV (HTLV-IIIB); Human immunodeficiency virus 1, MT4, 96 h, 4 μM, MT-4 cells, HTLV-IIIB 200 CCID50/well, 4 days at 37° C., read-out: Inhibition (%) of HIV replication): 10%
- inhibition at 20 µM (HIV (HTLV-IIIB); Human immunodeficiency virus 1, MT4, 96 h, 20 μM, MT-4 cells, HTLV-IIIB 200 CCID50/well, 4 days at 37° C., read-out: Inhibition (%) of HIV replication): 100%
- inhibition at 100 µM (HIV (HTLV-IIIB); Human immunodeficiency virus 1, MT4, 96 h, 100 μM, MT-4 cells, HTLV-IIIB 200 CCID50/well, 4 days at 37° C., read-out: Inhibition (%) of HIV replication): 100%

Structure (SMILES): CCCCCCCN1C(C)=CSC1=CC=C(C=Cc1scc(C)[n+]1CCCCCCC)c1scc(C)[n+]1CCCCCCC.[I-].[I-] [Active ingredient B]
- LD50 ([1]; intraperitoneal administration): 54 mg/kg
- LD50 ([1]; oral administration): 1500 mg/kg
- Inhibition (%) of HIV replication (HIV (HTLV-IIIB); [5]): 2%
- Inhibition (%) of HIV replication (HIV (HTLV-IIIB); [6]): 1%
- Inhibition (%) of HIV replication (HIV (HTLV-IIIB); [7]): 2%
- suppression of HIV replication (in words) (HIV (HTLV-IIIB)): no anti-virus activity to suppress reproduction of HIV; also recorded: did not suppress the replication of HIV
